Results on one molecule are retold here after patent US20210196627A1, “SYSTEMS FOR ENTERIC DELIVERY OF THERAPEUTIC AGENTS” (Lyndra, Inc., priority 2018, published 2021).

A short description of the data set: Memantine bioanalysis in plasma after duodenal placement of stellate system (LC-MS/MS). Format: in vivo, beagle dogs. The source says:
Six male beagle dogs (each weighing ˜10 kg) were anesthetized and intubated, and stellate-shaped systems bearing memantine drug arms were placed endoscopically through the pylorus into the duodenum. Each stellate system contained steel beads at the tips of the drug arms which facilitated X-ray imaging for confirming successful duodenal placement.
X-rays were collected daily to monitor residence time in the small intestine. Blood samples were collected through Day 10 of the study and processed to plasma for quantitation of memantine using an LC-MS/MS assay. The dogs were monitored for the duration of the study for safety.

In the case of `CC12CC3CC(C)(C1)CC(N)(C3)C2` [memantine], the “time for which sustained release of memantine was measurable” value (dog plasma, stellate system placed in duodenum, blood sampled through Day 10) turned out to be 7 days. The Tmax (male, beagle, memantine in dog plasma, stellate system placed endoscopically in duodenum) turned out to be 8 h. Further, the “exposure from the small intestine” value (memantine in dog plasma, stellate system placed in duodenum) is “good exposure”.
